The record followed here is ChEMBL document CHEMBL1201862, “PubChem BioAssay data set” (2004).

Test [1] has as its target Beta-lactamase (Pseudomonas aeruginosa, UniProt Q79MP6).
Test [2] has as its system HEK293. Kind of test: membrane integrity loss in HEK cells – cell-based, fluorescence, cytotoxicity control for IDE activator project, dose response (AID 588440).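 Further: cytotoxicity by LDH release measuring loss of membrane integrity.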 The test is classed as functional. To be noted: Homo sapiens.
Test [3] addresses Dual specificity tyrosine-phosphorylation-regulated kinase 1A (Rattus norvegicus, UniProt Q63470). It is filed as biochemical, Homo sapiens.
The target of test [4] is Beta-lactamase (Salmonella choleraesuis (strain SC-B67), UniProt Q5J463).
For test [5], the target named is T1, Phospholipase A2 (Homo sapiens, UniProt P04054). It is filed as functional.
Test [6] in a line: NIH-3T3 fibroblast cytotoxicity, dose response, cytotoxicity control, cell-based, fluorescence, Alamar Blue, secondary assay (AID 2327).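 Further: NIH-3T3 mouse fibroblasts cultured with fluconazole at 8 µg/mL.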 The test is classed as functional.
A short description of test [7]: general mammalian cell viability loss – activator set, cherry-pick, cytotoxicity control for miR-122 modulator project, dose response (AID 720690).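 Further: HEK293T human cells scored for general mammalian cytotoxicity.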 It is filed as functional, cell-based.
Test [8] has as its target T1, Phospholipase A2. Description: phospholipase A2 activity inhibition – biochemical, set 2, counter-screen for ATG4B inhibitor project, dose response (AID 588586). It is filed as functional.
Test [9] is described as follows: alpha-synuclein stem-loop luciferase translation blockers – H4 neuroglioma cells, luminescence, confirmation (AID 1988). It is filed as functional, cell-based.
Test [10] in a line: fluconazole-exposed Candida albicans growth modulators – fluorescence, retest, confirmation (AID 2467). The test is classed as functional, cell-based.
A short description of test [11]: cells. It is filed as functional, cell-based.
The nature of test [12]: cells. It is filed as functional, cell-based. This is another data set of the same source.
Test [13] in a line: HEK-293T viability loss after treatment – luminescence, T-cell screen hits, cytotoxicity control for TCR NF-kB inhibitor project, dose response (AID 489026).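 Further: cells exposed to compound about 14 hours before the viability readout.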 It is filed as functional, cell-based.
The subject of another test is Streptococcus. Kind of test: GAS UMAA2166 growth inhibition – luminescence, BacTiterGlo, counter-screen for streptokinase expression inhibitor project, dose response (AID 1915).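 Further: potency for reduction of bacterial viability or growth.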 The test is classed as functional, organism-based.
The nature of test [14]: luciferase reporter signal suppression in cells – H4 neuroglioma cells, luminescence, dose response (AID 1990). It is filed as functional, cell-based.
For test [15], the system named is HEK293. Description: EBV LMP1 TES2 canonical NF-kB signalling blockers – cell-based, HEK293, luciferase, cherry-pick, dose response (AID 588343). To be noted: Homo sapiens. The test is classed as functional.
Test [16] in a line: general mammalian cell viability loss – inhibitor set, cherry-pick, set 2, cytotoxicity control for miR-122 modulator project, dose response (AID 720697). The test is classed as functional, cell-based.
Test [17] in a line: Trypanosoma cruzi growth suppression in host cells – NIH3T3 host cells, beta-gal luminescence, confirmation (AID 2044).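 Further: intracellular parasites grown in NIH/3T3 mouse fibroblasts as host cells; luminescent beta-galactosidase reporter signal from transgenic T. cruzi replicating inside host cells; inhibitors lower the luminescence signal.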 It is filed as functional, cell-based.
In test [18] the target is Guanyl-specific ribonuclease T1 (Aspergillus oryzae (strain ATCC 42149 / RIB 40), UniProt P00651). Kind of test: inhibition of ribonuclease T1 activity – biochemical, fluorescence polarization, 1536-well, counter-screen for TPT1 inhibitor project, dose response (AID 2167).
The next test has as its target Large T antigen (Simian virus 40, UniProt P03070). The test is classed as functional, Betapolyomavirus macacae.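 Further: Confirmatory-stage PubChem screen for compounds that inhibit SV40 T antigen.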
The target in another test is Troponin, cardiac muscle (Homo sapiens, UniProt P19429+P45379+P63316). Description: compounds desensitizing RTF to calcium – biochemical, fluorescence, cardiac regulated thin filaments, triplicate IC50, dose response (AID 504742). It is filed as protein-complex assay.
The target of test [19] is Bifunctional protein GlmU (Mycobacterium tuberculosis, UniProt P9WMN3). Description: Inhibitors of Mycobacterial Glucosamine-1-phosphate acetyl transferase (GlmU). Secondary screen. Also on record: species or system Mycobacterium tuberculosis H37Rv.
In test [20] the target is Eukaryotic translation initiation factor 4E (Mus musculus, UniProt P63073). Description: blockers of eIF4G binding by eIF4E – biochemical, TR-FRET, dose response (AID 855).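 Further: potency for disrupting eIF4E binding to eIF4GI seen as loss of FRET.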 It is filed as functional.
Test [21] has as its target Likely tRNA 2'-phosphotransferase (Candida albicans (strain SC5314 / ATCC MYA-2876) (Yeast), UniProt Q5A7N4). Description: inhibition of Candida TPT1 enzyme activity – biochemical, fluorescence polarization, dose response (AID 2160).
The target of test [22] is T2, Apoptotic protease-activating factor 1 (Homo sapiens, UniProt O14727).
T2 sequence (O14727 whole entry): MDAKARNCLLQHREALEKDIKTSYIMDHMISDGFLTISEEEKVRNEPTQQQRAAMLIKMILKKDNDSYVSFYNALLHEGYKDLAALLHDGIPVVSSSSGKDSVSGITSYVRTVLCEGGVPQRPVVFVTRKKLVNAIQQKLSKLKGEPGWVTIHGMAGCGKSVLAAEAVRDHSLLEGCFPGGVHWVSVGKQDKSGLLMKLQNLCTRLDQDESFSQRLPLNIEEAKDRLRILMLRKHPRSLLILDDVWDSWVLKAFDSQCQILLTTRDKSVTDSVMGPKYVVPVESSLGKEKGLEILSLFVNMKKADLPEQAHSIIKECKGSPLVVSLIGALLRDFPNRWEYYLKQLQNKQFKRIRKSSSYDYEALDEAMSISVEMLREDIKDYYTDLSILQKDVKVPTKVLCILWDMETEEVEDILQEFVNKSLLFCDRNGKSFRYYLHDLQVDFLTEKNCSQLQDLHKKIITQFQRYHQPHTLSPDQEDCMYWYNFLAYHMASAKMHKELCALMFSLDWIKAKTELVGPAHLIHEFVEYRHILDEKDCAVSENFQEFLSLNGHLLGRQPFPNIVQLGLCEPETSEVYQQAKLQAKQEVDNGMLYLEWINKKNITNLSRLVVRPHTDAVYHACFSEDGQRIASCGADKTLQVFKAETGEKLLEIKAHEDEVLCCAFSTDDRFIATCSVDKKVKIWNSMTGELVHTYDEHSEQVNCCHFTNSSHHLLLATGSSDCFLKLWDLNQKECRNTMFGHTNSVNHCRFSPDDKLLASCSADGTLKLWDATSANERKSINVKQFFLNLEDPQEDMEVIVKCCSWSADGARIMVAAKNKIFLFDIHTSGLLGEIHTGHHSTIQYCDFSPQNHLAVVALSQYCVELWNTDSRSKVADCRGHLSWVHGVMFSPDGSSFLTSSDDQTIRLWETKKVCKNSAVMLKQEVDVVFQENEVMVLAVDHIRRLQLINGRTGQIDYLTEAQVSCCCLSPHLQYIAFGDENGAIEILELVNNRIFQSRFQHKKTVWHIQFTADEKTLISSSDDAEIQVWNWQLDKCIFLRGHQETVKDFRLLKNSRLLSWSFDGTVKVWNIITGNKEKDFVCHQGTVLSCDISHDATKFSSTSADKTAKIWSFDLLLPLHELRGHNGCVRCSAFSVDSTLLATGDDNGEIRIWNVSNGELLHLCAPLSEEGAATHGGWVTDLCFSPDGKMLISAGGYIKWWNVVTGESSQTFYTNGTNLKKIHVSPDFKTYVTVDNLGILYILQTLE
It is filed as functional.

Test [23] addresses Induced myeloid leukemia cell differentiation protein Mcl-1 (Homo sapiens, UniProt Q07820). It is filed as functional.
The next test has as its target Cytochrome P450 2C19 (Homo sapiens, UniProt P33261). Kind of test: Cytochrome panel assay with activity outcomes. Panel member name: p450-cyp2c19 Compounds with AC50 equal or less than 10 uM are considered active. It is filed as functional. To be noted: read-out: AC50.

Molecules are shown by their SMILES. Calls of active or inactive are those of the source.

T1 sequence (P04054 whole entry): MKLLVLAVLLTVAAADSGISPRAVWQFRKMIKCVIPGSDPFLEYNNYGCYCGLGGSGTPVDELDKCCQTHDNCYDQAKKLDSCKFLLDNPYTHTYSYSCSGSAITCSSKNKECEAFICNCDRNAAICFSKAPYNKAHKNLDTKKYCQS
Beta-lactamase (Pseudomonas aeruginosa, UniProt Q79MP6), sequence (Q79MP6 whole entry): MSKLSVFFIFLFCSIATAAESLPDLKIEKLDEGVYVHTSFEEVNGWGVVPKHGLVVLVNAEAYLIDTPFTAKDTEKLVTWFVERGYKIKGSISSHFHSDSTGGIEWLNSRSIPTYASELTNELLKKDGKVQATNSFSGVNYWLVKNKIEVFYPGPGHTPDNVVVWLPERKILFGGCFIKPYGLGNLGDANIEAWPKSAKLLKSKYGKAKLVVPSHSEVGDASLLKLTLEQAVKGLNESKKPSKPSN
Induced myeloid leukemia cell differentiation protein Mcl-1, sequence (Q07820 whole entry): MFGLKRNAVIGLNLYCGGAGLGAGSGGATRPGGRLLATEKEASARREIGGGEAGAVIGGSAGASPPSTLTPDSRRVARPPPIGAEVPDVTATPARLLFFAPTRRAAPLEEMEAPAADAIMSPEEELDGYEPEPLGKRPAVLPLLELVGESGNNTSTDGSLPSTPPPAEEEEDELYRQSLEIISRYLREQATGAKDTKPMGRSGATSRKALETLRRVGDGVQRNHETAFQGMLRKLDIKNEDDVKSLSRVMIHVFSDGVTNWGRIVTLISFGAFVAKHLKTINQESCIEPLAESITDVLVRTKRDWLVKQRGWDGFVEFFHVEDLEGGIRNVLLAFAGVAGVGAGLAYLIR
Bifunctional protein GlmU, sequence (P9WMN3 whole entry): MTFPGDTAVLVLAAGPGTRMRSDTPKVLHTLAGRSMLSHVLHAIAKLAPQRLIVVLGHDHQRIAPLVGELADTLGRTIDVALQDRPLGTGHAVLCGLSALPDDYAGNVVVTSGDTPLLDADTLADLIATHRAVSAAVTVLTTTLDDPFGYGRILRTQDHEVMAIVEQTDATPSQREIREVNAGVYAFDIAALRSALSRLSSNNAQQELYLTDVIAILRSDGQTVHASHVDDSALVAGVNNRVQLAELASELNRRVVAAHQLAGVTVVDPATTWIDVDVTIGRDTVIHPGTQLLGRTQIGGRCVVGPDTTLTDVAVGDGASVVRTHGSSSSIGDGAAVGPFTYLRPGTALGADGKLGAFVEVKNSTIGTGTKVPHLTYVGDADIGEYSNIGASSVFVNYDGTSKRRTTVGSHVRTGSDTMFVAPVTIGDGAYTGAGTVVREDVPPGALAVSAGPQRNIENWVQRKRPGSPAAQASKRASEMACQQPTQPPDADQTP
Beta-lactamase (Salmonella choleraesuis (strain SC-B67), UniProt Q5J463), sequence (Q5J463 whole entry): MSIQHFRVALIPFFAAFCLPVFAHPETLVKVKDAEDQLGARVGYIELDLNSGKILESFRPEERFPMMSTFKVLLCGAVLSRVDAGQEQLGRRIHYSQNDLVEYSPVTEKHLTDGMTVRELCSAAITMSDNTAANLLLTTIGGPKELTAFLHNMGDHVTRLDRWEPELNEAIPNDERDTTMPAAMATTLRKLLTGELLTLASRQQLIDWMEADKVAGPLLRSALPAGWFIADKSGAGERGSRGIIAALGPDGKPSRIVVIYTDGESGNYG
Eukaryotic translation initiation factor 4E, sequence (P63073 whole entry): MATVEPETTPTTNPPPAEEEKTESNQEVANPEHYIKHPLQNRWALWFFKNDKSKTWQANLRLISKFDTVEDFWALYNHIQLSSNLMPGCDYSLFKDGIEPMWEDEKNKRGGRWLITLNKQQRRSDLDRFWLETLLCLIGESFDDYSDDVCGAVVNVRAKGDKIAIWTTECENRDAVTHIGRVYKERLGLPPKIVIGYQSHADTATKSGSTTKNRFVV
Guanyl-specific ribonuclease T1, sequence (P00651 whole entry): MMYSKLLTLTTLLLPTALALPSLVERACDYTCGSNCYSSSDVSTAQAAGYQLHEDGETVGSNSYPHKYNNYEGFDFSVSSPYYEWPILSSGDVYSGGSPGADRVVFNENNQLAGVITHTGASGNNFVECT
Cytochrome P450 2C19, sequence (P33261 whole entry): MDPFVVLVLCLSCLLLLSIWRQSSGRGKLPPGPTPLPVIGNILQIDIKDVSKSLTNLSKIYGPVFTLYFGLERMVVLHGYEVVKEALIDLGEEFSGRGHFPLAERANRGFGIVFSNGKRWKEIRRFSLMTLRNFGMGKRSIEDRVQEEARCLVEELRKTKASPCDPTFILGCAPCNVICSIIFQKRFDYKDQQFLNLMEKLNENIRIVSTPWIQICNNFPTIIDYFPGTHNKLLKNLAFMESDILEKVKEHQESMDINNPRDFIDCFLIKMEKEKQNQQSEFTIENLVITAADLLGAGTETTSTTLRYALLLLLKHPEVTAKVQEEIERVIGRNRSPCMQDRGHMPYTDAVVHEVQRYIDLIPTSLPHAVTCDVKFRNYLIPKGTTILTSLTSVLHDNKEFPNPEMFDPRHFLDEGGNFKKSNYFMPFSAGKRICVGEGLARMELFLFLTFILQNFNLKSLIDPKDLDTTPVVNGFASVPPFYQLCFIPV
Large T antigen, sequence (P03070 whole entry): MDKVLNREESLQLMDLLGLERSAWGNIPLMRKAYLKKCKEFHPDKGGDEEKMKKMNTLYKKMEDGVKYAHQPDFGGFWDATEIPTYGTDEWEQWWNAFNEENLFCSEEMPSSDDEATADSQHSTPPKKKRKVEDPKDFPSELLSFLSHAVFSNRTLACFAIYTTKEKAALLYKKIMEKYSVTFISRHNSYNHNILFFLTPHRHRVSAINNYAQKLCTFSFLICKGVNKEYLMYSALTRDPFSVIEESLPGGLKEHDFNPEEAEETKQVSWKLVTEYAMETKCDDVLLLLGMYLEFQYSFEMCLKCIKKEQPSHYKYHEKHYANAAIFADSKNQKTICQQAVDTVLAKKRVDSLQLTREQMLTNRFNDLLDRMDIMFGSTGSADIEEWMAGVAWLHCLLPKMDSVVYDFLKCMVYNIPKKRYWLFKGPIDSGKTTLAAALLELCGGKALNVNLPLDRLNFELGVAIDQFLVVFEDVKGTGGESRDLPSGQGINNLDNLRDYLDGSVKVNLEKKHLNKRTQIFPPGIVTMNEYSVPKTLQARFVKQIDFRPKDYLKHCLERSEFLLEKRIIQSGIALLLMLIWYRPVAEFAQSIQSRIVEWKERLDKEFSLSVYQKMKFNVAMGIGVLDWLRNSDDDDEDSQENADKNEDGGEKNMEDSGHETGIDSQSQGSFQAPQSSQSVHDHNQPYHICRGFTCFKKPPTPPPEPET
Likely tRNA 2'-phosphotransferase, sequence (Q5A7N4 whole entry): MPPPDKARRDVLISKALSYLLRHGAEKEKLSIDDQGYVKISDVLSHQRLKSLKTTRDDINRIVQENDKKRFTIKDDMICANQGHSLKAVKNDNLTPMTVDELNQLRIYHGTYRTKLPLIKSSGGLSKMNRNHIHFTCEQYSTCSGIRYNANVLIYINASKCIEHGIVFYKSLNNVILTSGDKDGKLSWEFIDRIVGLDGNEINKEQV

As for `O=C1CCN2C=Nc3cccc4ccc1c2c34`, the IC50 is 11.8 µM (inactive) at Beta-lactamase [1], > 89.2 µM (inactive) with HEK293 [2] and 7.55 µM (active) on Beta-lactamase [4]. In test [3], the concentration at half-maximal activity (AC50) was 3 µM (active).
Consider `Oc1ccc2ccccc2c1/C=N/Nc1nnc(-c2ncc[nH]2)c2ccccc12`, for which the IC50 on Phospholipase A2 [5] was 1.51 µM (active); on Phospholipase A2 [8] it was 2.47 µM (active); in [13] it was > 80 µM (inactive). For the same compound, the concentration giving a half-maximal response (EC50) in test [6] was 11.4 µM (active); in [9], 0.224 µM (active); in test [10] it was 0.714 µM (active); in the test “cells [11]”, 82.8 µM (active); in “cells [12]” it was > 350 µM (not active); in the test with Streptococcus, 5.84 µM (active). Besides, the EC50 in test [14] was 0.178 µM (active); in test [17], 0.412 µM (active). For the same compound, the values for the AC50 (in test [7]; in the test with HEK293 [15]; in test [16]) were 3.09 µM (active), 1.79 µM (active) and 2.19 µM (active), respectively.
For `CC(C)C(C(=O)O)N1C(=O)/C(=C/C=C/c2ccco2)SC1=S` (configuration not stated), the IC50 in test [18] is 9.85 µM (active); on Large T antigen, 24.6 µM (active); at Troponin, cardiac muscle, 22.4 µM (inactive); in test [19], 47.9 µM (active); in test [20] it was 11.3 µM (active); in [21] it was 20.5 µM (not active). Besides, the IC50 was > 100 µM (inactive) in test [22] and > 54 µM (active) in [23]. The AC50 on Cytochrome P450 2C19 was 10 µM (inconclusive).
